Source: patent publication US8664406B2, “Fluorescent probe compounds, preparation method and use thereof” (Dalian University of Technology, priority 2009, dated 2014)

What was measured:
[1] = probe 5 μM, ethanol/water=1/1 v/v; for fluorescence and UV-Vis absorption enhancement induced by Hg^2+: Hg^2+ 15 equivalence; for selectivity to Hg^2+: metal ions 50 equivalence (Hg^2+ 15 equivalence), without the interference from Na^+, K^+, Ca^2+, Mg^2+, Cu^2+ and so on
Experimental: The synthesized compound RHg1 was adopted to test the selectivity to Hg^2+. RHg1 (5 μM) was added into ethanol aqueous solution (ethanol/water=1/1, v/v) containing metal ion (50 equivalence, except that Hg^2+ is 15 equivalence), and then the fluorescence spectrum was tested with excitation wavelength of 510 nm and emission wavelength of 580 nm, the result is shown in FIG. 1.
The synthesized compound RHg2 was adopted to test the selectivity to Hg^2+. RHg2 (5 μM) was added into ethanol aqueous solution (ethanol/water=1/1, v/v) containing metal ion (50 equivalence, except that Hg^2+ is 15 equivalence), and then the fluorescence spectrum was tested, the result is shown in FIG. 10.
The synthesized compound RHg3 was adopted to test the selectivity to Hg^2+. RHg3 (5 μM) was added into ethanol aqueous solution (ethanol/water=1/1, v/v) containing metal ion (50 equivalence, except that Hg^2+ is 15 equivalence), and then the fluorescence spectrum was tested, the result is shown in FIG. 11.
The synthesized compound RHg4 was adopted to test the selectivity to Hg^2+. RHg4 (5 μM) was added into ethanol aqueous solution (ethanol/water=1/1, v/v) containing metal ion (50 equivalence, except that Hg^2+ is 15 equivalence), and then the fluorescence spectrum was tested, the result is shown in FIG. 12.
The synthesized compound RHg5 was adopted to test the selectivity to Hg^2+. RHg5 (5 μM) was added into ethanol aqueous solution (ethanol/water=1/1, v/v) containing metal ion (50 equivalence, except that Hg^2+ is 15 equivalence), and then the fluorescence spectrum was tested, the result is shown in FIG. 13.
The synthesized compound RHg6 was adopted to test the selectivity to Hg^2+. RHg6 (5 μM) was added into ethanol aqueous solution (ethanol/water=1/1, v/v) containing metal ion (50 equivalence, except that Hg^2+ is 15 equivalence), and then the fluorescence spectrum was tested, the result is shown in FIG. 14.
The synthesized compound RHg7 was adopted to test the selectivity to Hg^2+. RHg7 (5 μM) was added into ethanol aqueous solution (ethanol/water=1/1, v/v) containing metal ion (50 equivalence, except that Hg^2+ is 15 equivalence), and then the fluorescence spectrum was tested, the result is shown in FIG. 15.
The synthesized compound RHg8 was adopted to test the selectivity to Hg^2+. RHg8 (5 μM) was added into ethanol aqueous solution (ethanol/water=1/1, v/v) containing metal ion (50 equivalence, except that Hg^2+ is 15 equivalence), and then the fluorescence spectrum was tested, the result is shown in FIG. 16.
The synthesized compound RHg9 was adopted to test the selectivity to Hg^2+. RHg9 (5 μM) was added into ethanol aqueous solution (ethanol/water=1/1, v/v) containing metal ion (50 equivalence, except that Hg^2+ is 15 equivalence), and then the fluorescence spectrum was tested, the result is shown in FIG. 17.
The synthesized compound RHg10 was adopted to test the selectivity to Hg^2+. RHg10 (5 μM) was added into ethanol aqueous solution (ethanol/water=1/1, v/v) containing metal ion (50 equivalence, except that Hg^2+ is 15 equivalence), and then the fluorescence spectrum was tested, the result is shown in FIG. 18.

[2] = pH range 4.9 to 7.7, aqueous solution, ionic strength 0.1
Experimental: The pHs of RHg1 aqueous solution and RHg1/Hg^2+ aqueous solution (ionic strength of 0.1, respectively) were adjusted to about 4.9, after measurement of fluorescence signal, a base solution was added slowly to adjust pH to 7.7, and the corresponding fluorescence signal change was measure, the results is shown in FIG. 3. […] The instrument is fluorospectrophotometer, model: LS 55.

[3] = RHg1 1 μM, sea water, Hg^2+ 1 to 5 ppb
Experimental: The application of the fluorescence probe of the present invention in sea water is described below. Namely, the probe is dissolved in an organic solvent or an organic solvent/water to form a probe solution. Some amount of the probe solution is added into the sea water sample containing Hg^2+ and the mixture is reacted for 10 to 30 min, and then fluorescence is detected.
The instrument is fluorospectrophotometer, model: LS 55.

[4] = tested on: Hela cells; details: 37° C., 30 min, RHg1 10 μM
Experimental: In order to investigate the ability of probe to track Hg^2+ in living cells, the following experiment is carried out. A neutral buffer containing the probe is added into cells, and then cells are incubated for 0.5 h in an incubator of 37° C. containing 5% CO2. The obtained cells are fully washed with the buffer or the culture medium and then imaged with fluorescent microscope to give a blank image. On the other hand, Hg(NO3)2 solution (final concentration is made to 10 μM) is added into the culture containing cells and the probe, and then cells are incubated for 0.5 h in an incubator of 37° C. containing 5% CO2. The obtained cells are washed with the culture medium and then imaged with fluorescent microscope to give an image showing intracellular distribution of Hg^2+, by which the information about the presence of Hg^2+ and regional distribution of Hg^2+ in cells is obtained.
The instrument is Nikon eclipase TE 2000-5.

[5] = RHg1 3 μM, L-cysteine 10 μM, Hg^2+ 1 μM
Experimental: The fluorescence of RHg1 (3 μM) was tested first, then the fluorescence of RHg1 after addition of L-cysteine (10 μM) or Hg^2+ (1 μM) was tested, and finally the fluorescence of the mixed solution containing RHg1, L-cysteine and Hg^2+ was tested. […] The instrument is Nikon eclipase TE 2000-5.

Compound | fluorescence and UV-Vis absorption enhancement induced by Hg^2+ [1] | selectivity to Hg^2+ [1] | other results
Nc1ccc2c(c1)Oc1cc(N)ccc1C21c2ccccc2C(=O)N1/N=C/C=N/c1ccc(Nc2ccccc2)cc1 [RHg24] | large fluorescence and UV-Vis absorption enhancement | good selectivity | 
Cc1c(/N=C/C=N/N2C(=O)c3ccccc3C23c2ccc(N)cc2Oc2cc(N)ccc23)cccc1C(F)(F)F [RHg25] | large fluorescence and UV-Vis absorption enhancement | good selectivity | 
Nc1ccc2c(c1)Oc1cc(N)ccc1C21c2ccccc2C(=O)N1/N=C/C=N/c1ccc(C(=O)O)cc1 [RHg23] | large fluorescence and UV-Vis absorption enhancement | good selectivity | 
CCNc1cc2c(cc1C)C1(c3cc(C)c(NCC)cc3O2)c2ccccc2C(=O)N1/N=C/C=N/c1ccc(CCl)cc1 [RHg14] | large fluorescence and UV-Vis absorption enhancement | good selectivity | 
CCN(CC)c1cc2c(cc1C)C1(c3ccc(N)cc3O2)c2ccccc2C(=O)N1/N=C/C=N/c1ccc(Nc2ccccc2)cc1 (stereo not shown) [RHg10] | large fluorescence and UV-Vis absorption enhancement | good selectivity | 
CCN(CC)c1ccc2c(c1)Oc1cc(N(CC)CC)ccc1C21c2ccccc2C(=O)N1/N=C/C=N/c1ccccc1C [RHg2] | large fluorescence and UV-Vis absorption enhancement | good selectivity | 
CCN(CC)c1ccc2c(c1)Oc1cc(N(CC)CC)ccc1C21c2ccccc2C(=O)N1/N=C/C=N/c1ccccc1O [RHg1] | large fluorescence and UV-Vis absorption enhancement | good selectivity | effect of pH change on fluorescence emission [2]: nearly not effected; relationship between fluorescence intensity and Hg^2+ concentration [3]: good linear relationship; fluorescence in living Hela cells without Hg^2+ [4]: very weak; fluorescence in living Hela cells with Hg^2+ added ([4]; Hg^2+ 10 μM): very strong; effect of L-cysteine on Hg^2+ detection [5]: little effects
CCN(CC)c1cc2c(cc1C)C1(c3ccc(N)cc3O2)c2ccccc2C(=O)N1/N=C/C=N/c1ccc(C#N)cc1 (stereo not shown) [RHg8] | large fluorescence and UV-Vis absorption enhancement | good selectivity | 
CCN(CC)c1ccc2c(c1)Oc1cc(N)ccc1C21c2ccccc2C(=O)N1/N=C/C=N/c1ccc(OC)cc1 (stereo not shown) [RHg19] | large fluorescence and UV-Vis absorption enhancement | good selectivity | 
CCN(CC)c1ccc2c(c1)Oc1cc(N(CC)CC)ccc1C21c2ccccc2C(=O)N1/N=C/C=N/c1ccccc1 [RHg3] | large fluorescence and UV-Vis absorption enhancement | good selectivity | 
CCN(CC)c1cc2c(cc1C)C1(c3ccc(N)cc3O2)c2ccccc2C(=O)N1/N=C/C=N/c1ccc(C(C)=O)cc1 (stereo not shown) [RHg11] | large fluorescence and UV-Vis absorption enhancement | good selectivity | 
CCNc1cc2c(cc1C)C1(c3cc(C)c(NCC)cc3O2)c2ccccc2C(=O)N1/N=C/C=N/c1ccc(Nc2ccccc2)cc1 [RHg17] | large fluorescence and UV-Vis absorption enhancement | good selectivity | 
CCN(CC)c1cc2c(cc1C)C1(c3ccc(N)cc3O2)c2ccccc2C(=O)N1/N=C/C=N/c1ccc(NC(C)=O)cc1 (stereo not shown) [RHg9] | large fluorescence and UV-Vis absorption enhancement | good selectivity | 
CCN(CC)c1ccc2c(c1)Oc1cc(N)ccc1C21c2ccccc2C(=O)N1/N=C/C=N/c1ccc(OCCOCCO)cc1 (stereo not shown) [RHg20] | large fluorescence and UV-Vis absorption enhancement | good selectivity | 
Nc1ccc2c(c1)Oc1cc(N)ccc1C21c2ccccc2C(=O)N1/N=C/C=N/c1ccc(OCCOCCO)cc1 [RHg22] | large fluorescence and UV-Vis absorption enhancement | good selectivity | 
CCN(CC)c1cc2c(cc1C)C1(c3ccc(N)cc3O2)c2ccccc2C(=O)N1/N=C/C=N/c1ccccc1 (stereo not shown) [RHg7] | large fluorescence and UV-Vis absorption enhancement | good selectivity | 
CCN(CC)c1ccc2c(c1)Oc1cc(N)ccc1C21c2ccccc2C(=O)N1/N=C/C=N/c1ccc(Br)cc1 (stereo not shown) [RHg18] | large fluorescence and UV-Vis absorption enhancement | good selectivity | 
CCNc1cc2c(cc1C)C1(c3cc(C)c(NCC)cc3O2)c2ccccc2C(=O)N1/N=C/C=N/c1ccc(OC)cc1 [RHg13] | large fluorescence and UV-Vis absorption enhancement | good selectivity | 
CCNc1cc2c(cc1C)C1(c3cc(C)c(NCC)cc3O2)c2ccccc2C(=O)N1/N=C/C=N/c1ccc(C(=O)O)cc1 [RHg15] | large fluorescence and UV-Vis absorption enhancement | good selectivity | 
